According to paper PMC3253143 (Nature, 2011):

Biological target: EmrE (Escherichia coli, UniProt P23895)
Test: biochemical

Sequence of EmrE (P23895 whole entry): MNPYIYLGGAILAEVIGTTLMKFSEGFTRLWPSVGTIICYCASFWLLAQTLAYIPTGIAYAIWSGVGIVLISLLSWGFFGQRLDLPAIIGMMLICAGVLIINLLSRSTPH

Structure (SMILES): c1ccc([P+](c2ccccc2)(c2ccccc2)c2ccccc2)cc1 [TPP^+]
- Kd: 120 ± 12 nM
